# Experiments:
# [1] = test system: Acinetobacter baumannii (ATCC 19606); test: Antimicrobial screening (CO-ADD), growth inhibition at single concentration; assay type: cell-based; conditions: ATCC19606, at 32 µg/mL concentration, read-out: growth inhibition % Ab (A. baumannii)
# Description: (§1) The antimicrobial study was performed by CO-ADD (The Community for Antimicrobial Drug Discovery), funded by the Wellcome Trust (UK) and The University of Queensland (Australia). Evaluation of all synthesized compounds for their antimicrobial activities was done against five pathogenic bacteria, methicillin-resistant Staphylococcus aureus (ATCC 43300) as Gram-positive bacteria, Escherichia coli (ATCC 25922), Klebsiella pneumonia (ATCC 700603), Acinetobacter baumannii (ATCC 19606) and Pseudomonas aeruginosa (ATCC 27853) as Gram-negative bacteria and antifungal activity against two pathogenic fungal strains Candida albicans (ATCC 90028) and Cryptococcus neoformans var. grubii (H99; ATCC 208821) (Table 1).
# [2] = test system: Escherichia coli (ATCC 25922); test: as above; assay type: cell-based; conditions: ATCC25922, at 32 µg/mL concentration, read-out: growth inhibition % Ec (E. coli)
# Description: as §1
# [3] = test system: Klebsiella pneumonia (ATCC 700603); test: as above; assay type: cell-based; conditions: Klebsiella pneumoniae, ATCC700603; at 32 µg/mL concentration; read-out: growth inhibition % Kp (K. pneumoniae)
# Description: as §1
# [4] = test system: Pseudomonas aeruginosa (ATCC 27853); test: as above; assay type: cell-based; conditions: ATCC27853, at 32 µg/mL concentration, read-out: growth inhibition % Pa (P. aeruginosa)
# Description: as §1
# [5] = test system: methicillin-resistant Staphylococcus aureus (ATCC 43300); test: as above; assay type: cell-based; conditions: ATCC 43300 / MRSA, at 32 µg/mL concentration, read-out: growth inhibition % Sa (MRSA)
# Description: as §1
# [6] = test system: Candida albicans (ATCC 90028); test: Antifungal screening (CO-ADD), growth inhibition at single concentration; assay type: cell-based; conditions: ATCC90028, at 32 µg/mL concentration, read-out: growth inhibition % Ca (C. albicans)
# Description: as §1
# MRSA = test: Minimal inhibitory concentration measurement; assay type: cell-based; conditions: Staphylococcus aureus, read-out: MIC Sa (MRSA)
# Description: (§3) The antimicrobial and antifungal screening was performed according to CO-ADD (The Community for Antimicrobial Drug Discovery) procedures [27].
# E. coli = test: Minimal inhibitory concentration measurement; assay type: cell-based; conditions: Escherichia coli; read-out: MIC Ec (E. coli)
# Description: as §3
# P. aeruginosa = test: Minimal inhibitory concentration measurement; assay type: cell-based; conditions: Pseudomonas aeruginosa; read-out: MIC Pa (P. aeruginosa)
# Description: as §3
# A. baumannii = test: Minimal inhibitory concentration measurement; assay type: cell-based; conditions: Acinetobacter baumannii; read-out: MIC Ab (A. baumannii)
# Description: as §3
# C. albicans = test: Minimal inhibitory concentration measurement; assay type: cell-based; conditions: Candida albicans; read-out: MIC Ca (C. albicans)
# Description: as §3
# [7] = test system: C. neoformans var. grubii; test: Minimal inhibitory concentration measurement; assay type: cell-based; conditions: Cryptococcus neoformans; read-out: MIC Cn (C. neoformans var. grubii)
# Description: as §3
# [8] = Cytotoxicity against human embryonic kidney cell line; assay type: cell-based; conditions: read-out: CC50 (concentration at 50% cytotoxicity)
# Description: (§2) The safety margin for the active compounds to human cells was determined through cytotoxicity against human embryonic kidney cell line and hemolysis of human red blood cells. The tested compounds 7a, 7g, and 7i were tolerated and non-toxic to human cells as the cytotoxic and hemolytic dose was higher than the therapeutic dose (Table 2).
# human red blood cells = test: Hemolysis of human red blood cells; assay type: cell-based
# Description: as §2
# Ovine COX-1 = molecular target: T1, Ovine COX-1 (Ovis aries, UniProt P05979); test: In vitro COX inhibition colorimetric assay; assay type: biochemical
# T1 construct: purchased Cayman Chemical, Ann Arbor, MI, USA 760111
# T1 sequence (P05979 25-600): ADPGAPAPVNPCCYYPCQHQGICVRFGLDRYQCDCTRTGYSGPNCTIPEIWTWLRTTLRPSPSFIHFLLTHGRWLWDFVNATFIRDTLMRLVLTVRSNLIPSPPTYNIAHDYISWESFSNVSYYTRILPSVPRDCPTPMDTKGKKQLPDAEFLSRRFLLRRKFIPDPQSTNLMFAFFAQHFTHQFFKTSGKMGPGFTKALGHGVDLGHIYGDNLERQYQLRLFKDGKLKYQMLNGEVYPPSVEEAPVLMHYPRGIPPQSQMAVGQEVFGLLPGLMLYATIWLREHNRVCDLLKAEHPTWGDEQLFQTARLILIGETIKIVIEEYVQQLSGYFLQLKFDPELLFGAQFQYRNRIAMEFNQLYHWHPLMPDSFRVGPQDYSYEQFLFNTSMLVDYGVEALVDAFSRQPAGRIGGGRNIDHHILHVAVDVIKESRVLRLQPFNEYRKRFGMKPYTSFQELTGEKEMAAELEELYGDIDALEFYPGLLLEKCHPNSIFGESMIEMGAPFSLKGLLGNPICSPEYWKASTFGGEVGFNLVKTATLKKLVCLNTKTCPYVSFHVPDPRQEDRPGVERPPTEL
# human recombinant COX-2 = test: In vitro COX inhibition colorimetric assay; assay type: biochemical; conditions: COX-1 IC50/COX-2 IC50
# [9] = test system: carrageenan-induced rat paw edema; test: Carrageenan-induced rat paw edema assay; assay type: in vivo; conditions: for Edema thickness (mm) ± SEM: n = 4
# Description: Pretreatment of rats with compounds 7a–k, 8a–c, and 9a–c before injection with carrageenan in rat paw which induces inflammation and then the percentage of paw edema reduction was measured after certain hours according to previously reported procedures.
# [10] = test system: MRSA bacteria and E. coli, K. pneumoniae, P. aeruginosa, and A. baumannii; test: Antibacterial screening, result pooled over the five bacteria; assay type: cell-based; conditions: read-out: growth inhibition, range over MRSA, E. coli, K. pneumoniae, P. aeruginosa and A. baumannii
# Description: as §1
Structure (SMILES),inhibition at 32 µg/mL [1] [%],inhibition at 32 µg/mL [2] [%],inhibition at 32 µg/mL [3] [%],inhibition at 32 µg/mL [4] [%],inhibition at 32 µg/mL [5] [%],inhibition at 32 µg/mL [6] [%],MIC (MRSA) [µg/mL],MIC (E. coli) [µg/mL],MIC (P. aeruginosa) [µg/mL],MIC (A. baumannii) [µg/mL],MIC (C. albicans) [µg/mL],MIC [7] [µg/mL],CC50 [8] [µg/mL],HC10 (concentration at 10% hemolysis) (human red blood cells) [µg/mL],IC50 (Ovine COX-1) [µM],Selectivity index (SI) (human recombinant COX-2),Edema inhibition % ([9]; 1 h) [%],Edema thickness (mm) ± SEM ([9]; 1 h) [mm],Edema inhibition % ([9]; 3 h) [%],Edema thickness (mm) ± SEM ([9]; 3 h) [mm],also measured
"CS(=O)(=O)c1ccc(-c2[nH]c3ccccc3c2C=NNc2ccc(F)cc2)cc1 [Compound 7a, 3-((2-(4-Fluorophenyl)hydrazono)methyl)-2-(4-(methylsulfonyl)phenyl)-1H-indole]",96.7,96.5,97.6,97.8,95.8,6.28,8,≤ 0.25,4,16,> 32,> 32,> 32,> 32,10.3,93.81,74.1,0.679 ± 0.03,88.7,0.250 ± 0.021,Edema inhibition % ([9]; 6 h): 92%; Edema thickness (mm) ± SEM ([9]; 6 h): 0.151 ± 0.007 mm; inhibition at 32 µg/mL [10]: 85.8 to 97.8%; melting point: 204 to 206 °C; MIC Kp (K. pneumoniae) (K. pneumoniae): 8 µg/mL
"Cc1ccc(NN=Cc2c(-c3ccc(S(C)(=O)=O)cc3)[nH]c3ccc(C)cc23)cc1 [Compound 7g, 5-Methyl-2-(4-(methylsulfonyl)phenyl)-3-((2-(p-tolyl)hydrazono)methyl)-1H-indole]",85.8,86.4,87.5,94.6,96.2,4.88,1,≤ 0.25,1,4,> 32,> 32,4.2,> 32,7.9,39.50,58.5,1.088 ± 0.090,72.3,0.618 ± 0.010,Edema inhibition % ([9]; 6 h): 67.4%; Edema thickness (mm) ± SEM ([9]; 6 h): 0.618 ± 0.045 mm; inhibition at 32 µg/mL [10]: 85.8 to 97.8%; melting point: 166 to 168 °C; MIC Kp (K. pneumoniae) (K. pneumoniae): 1 µg/mL
"CS(=O)(=O)c1ccc(-c2[nH]c3ccc(F)cc3c2/C=N/Nc2ccc(S(N)(=O)=O)cc2)cc1 [Compound 7i, 4-(2-((5-Fluoro-2-(4-(methylsulfonyl)phenyl)-1H-indol-3yl)methylene)hydrazinyl) benzene sulfonamide]",94.3,96.5,94.4,96.9,95.2,15.3,2,≤ 0.25,2,4,> 32,> 32,2.99,> 32,13.2,132,73.1,0.705 ± 0.047,94.3,0.127 ± 0.009,Edema inhibition % ([9]; 6 h): 90.1%; Edema thickness (mm) ± SEM ([9]; 6 h): 0.187 ± 0.015 mm; inhibition at 32 µg/mL [10]: 85.8 to 97.8%; melting point: 212 to 214 °C; MIC Kp (K. pneumoniae) (K. pneumoniae): 2 µg/mL

# Reference: PMC7106896, “Synthesis and biological evaluation of 2-(4-methylsulfonyl phenyl) indole derivatives: multi-target compounds with dual antimicrobial and anti-inflammatory activities” (BMC Chemistry, 2020)
